Read-outs that look alike come from different tables or passages of the source.
Experiments:
[1] = target: T1, MIF (Homo sapiens, UniProt P14174); assay: Time dependence in the MIF tautomerase activity assay (preincubation); assay type: biochemical
T1 sequence (P14174 2-115 limits assumed): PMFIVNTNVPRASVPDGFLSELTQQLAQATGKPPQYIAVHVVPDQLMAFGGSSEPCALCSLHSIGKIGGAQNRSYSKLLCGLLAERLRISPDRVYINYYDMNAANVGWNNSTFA
Protocol: (§1) The ability of candidate compounds to inhibit this tautomerase activity is quantitated by wing hydroxyphenyl pyruvic acid (HPP) as a substrate and following the increase in absorbance due to the enzymatic formation of the HPP enol-borate complex at 300 nm in the absence and presence of a test compound. The IC50 value of compounds was determined by plotting the initial velocities determined at 300 nm as a function of a test compound's concentration. Assays were carried out in a 96 or 384 well plate format.
The MIF tautomerase and cytokine inhibitor Compound 1 was designed as a potential irreversible inhibitor of MIF tautomerase activity. In an effort to investigate this mechanism, time dependent inhibitor analysis was carried out. In this experiment MIF was preincubated [P.I.] with Compound 1 for either 0 minutes, 20 minutes or 60 minutes followed by tautomerase enzyme activity determination.
Compound 1 was preincubated with MIF as indicated (0 min-60 min) and, a tautomerase dose-response analysis was carried out.

[2] = test system: anti-CD3/anti-CD28-stimulated PBMCs; assay: Th17-specific cytokine production in anti-CD3/anti-CD28-stimulated human PBMCs (ELISA); assay type: cell-based; conditions: PBMC, compound at 2.5 uM, 72 hours
From the text: MIF is secreted by monocytes/macrophages, activated T cells and several effector cells that play an important role in the perpetuation of inflammatory responses of the disease pathogenesis of several autoimmune and inflammatory disorders. MIF promotes the production of proinflammatory mediators such as tumor necrosis factor-α (TNF-α), interleukin (IL)-1β, IL-6 and IL-8 acting in an autocrine and paracrine function in the induction of proinflammatory responses. MIF has also been reported to stimulate the production of IL-17, a T helper 17 (Th17)-specific cytokine critical to the pathogenesis of several autoimmune and inflammatory diseases. […] Mono-Mac-6 Cells: The cellular efficacy of compound candidates is determined using the human monocytic cell line, Mono-Mac-6 cells (MM6 cells) as it has been shown that MM6 cells abundantly express MIF receptors CD74 and CXCR4. MIF-mediated signal transduction through these receptors may be important for the production of inflammatory mediators, including TNF-α, IL-1β, IL-6, IL-8, interferon-γ (IFN-γ) and prostaglandin E2 (PGE2) in these cells. To induce the production of inflammatory mediators, MM6 cells will be plated at a final concentration of 5×10^5 cells/ml in RPMI 1640 medium containing 1% heat-inactivated low-pyrogen fetal bovine serum, 2 mM GlutaMAX-I, 1% non-essential amino acids, 1% sodium pyruvate, 100 units/ml penicillin G and 100 μg/ml streptomycin (Gibco BRL Life Technologies). Cells will be stimulated with 100 ng/ml rhMIF purchased commercially or generated in house with or without inhibitor for 20 h at 37° C. with 5% CO2. The supernatants are stored at […] until they are to be assayed. The levels of inflammatory mediators will be determined using commercial :ELISA kits (eBiosciences). Human Peripheral Blood Mononuclear Cells (PBMCs): The cellular efficacy of compound candidates in inhibiting the production of proinflammatory mediators TNF-α, IL-1β, IL-6 and IL-8 following lipopolysaccharide (LPS) and rhMIF stimulation, and the production of T helper 17 (Th17)-specific cytokines IL-17F and IL-22 following anti-CD3/anti-CD28 stimulation, are determined in human PBMCs. To induce the production of proinflammatory cytokine mediators, cryopreserved human PBMCs (Cellular Technology Ltd.) are plated at a final concentration of 2×10^5 cells/ml in RPMI 1640 medium containing 1% heat-inactivated fetal bovine serum, 1% L-Glutamine and 1% Penicillin/Streptomycin (Lonza). […] Cell viability is determined using PrestoBlue™ Cell Viability Reagent (Invitrogen). The cytokine production levels of TNF-α, IL-1β, IL-6, IL-8, IL-17F and IL-22 are determined using commercial ELISA kits (eBiosciences). […]

[3] = test system: LPS-stimulated PBMCs; assay: Cytokine production in LPS-stimulated human PBMCs (ELISA); assay type: cell-based; conditions: Homo sapiens, PBMC
From the text: MIF is secreted by monocytes/macrophages, activated T cells and several effector cells that play an important role in the perpetuation of inflammatory responses of the disease pathogenesis of several autoimmune and inflammatory disorders. MIF promotes the production of proinflammatory mediators such as tumor necrosis factor-α (TNF-α), interleukin (IL)-1β, IL-6 and IL-8 acting in an autocrine and paracrine function in the induction of proinflammatory responses. MIF has also been reported to stimulate the production of IL-17, a T helper 17 (Th17)-specific cytokine critical to the pathogenesis of several autoimmune and inflammatory diseases. […] Mono-Mac-6 Cells: The cellular efficacy of compound candidates is determined using the human monocytic cell line, Mono-Mac-6 cells (MM6 cells) as it has been shown that MM6 cells abundantly express MIF receptors CD74 and CXCR4. MIF-mediated signal transduction through these receptors may be important for the production of inflammatory mediators, including TNF-α, IL-1β, IL-6, IL-8, interferon-γ (IFN-γ) and prostaglandin E2 (PGE2) in these cells. To induce the production of inflammatory mediators, MM6 cells will be plated at a final concentration of 5×10^5 cells/ml in RPMI 1640 medium containing 1% heat-inactivated low-pyrogen fetal bovine serum, 2 mM GlutaMAX-I, 1% non-essential amino acids, 1% sodium pyruvate, 100 units/ml penicillin G and 100 μg/ml streptomycin (Gibco BRL Life Technologies). Cells will be stimulated with 100 ng/ml rhMIF purchased commercially or generated in house with or without inhibitor for 20 h at 37° C. with 5% CO2. The supernatants are stored at […] until they are to be assayed. The levels of inflammatory mediators will be determined using commercial :ELISA kits (eBiosciences). Human Peripheral Blood Mononuclear Cells (PBMCs): The cellular efficacy of compound candidates in inhibiting the production of proinflammatory mediators TNF-α, IL-1β, IL-6 and IL-8 following lipopolysaccharide (LPS) and rhMIF stimulation, and the production of T helper 17 (Th17)-specific cytokines IL-17F and IL-22 following anti-CD3/anti-CD28 stimulation, are determined in human PBMCs. To induce the production of proinflammatory cytokine mediators, cryopreserved human PBMCs (Cellular Technology Ltd.) are plated at a final concentration of 2×10^5 cells/ml in RPMI 1640 medium containing 1% heat-inactivated fetal bovine serum, 1% L-Glutamine and 1% Penicillin/Streptomycin (Lonza). Cells are pre-incubated with or without inhibitor compounds dissolved in DMSO for 1 hour, then stimulated with LPS (Sigma Aldrich) or rhMIF to yield final concentrations of <0.1% DMSO, 100 ng/ml LPS and the compound concentration of interest. The potency of the compound candidates in inhibiting cytokine production is compared, to other small molecule MIF inhibitor standards ISO-1 (EMD Chemicals) N-acetyl-p-benzoquinone imine (NAPQI) and Ibudilast (TCI America). Cells were incubated for 20 hours at 37° C., 5% CO2. For the Th17-specific cytokine production assay, cells are stimulated with 5 ug/mL plate immobilized anti-CD3 (eBioscience) and 2 ug/mL soluble anti-CD28 (eBioscience) in the presence or absence of inhibitor compounds dissolved in DMSO to yield final compound concentrations of interest at <0.1% DMSO. Cells were incubated for 72 hours at 37° C. and 5% CO2. The supernatants are stored at −20° C. until they are to be assayed by ELISA. Cell viability is determined using PrestoBlue™ Cell Viability Reagent (Invitrogen). The cytokine production levels of TNF-α, IL-1β, IL-6, IL-8, IL-17F and IL-22 are determined using commercial ELISA kits (eBiosciences). Human Rheumatoid Arthritis Synovial Fibroblast (RASF) Cell Line: RASF cells are cultured in Dulbecco's modified Eagle's medium with 15% FBS, 1% glutamine, and 1% penicillin/streptamycin (all from Gibco (Invitrogen), Gaithersburg, Md.). […]

[4] = target: T2, Native human MIF (Homo sapiens, UniProt P14174); assay: MIF tautomerase activity assay (HPP substrate); assay type: biochemical; conditions: absorbance at 300 nm
T2 sequence (P14174 2-115 limits assumed): T1 sequence (P14174 2-115 limits assumed)
Protocol: as §1
Representative MIF inhibitors were tested in the assay described above and the results tabulated in Table 1 wherein “A” represents ≦1 μM; “B” represents >1 μM and ≦100 μM; “C” represents >100 μM

[5] = LPS-stimulated PBMCs, compound at 2.5 uM, 1 hour preincubation, 20 hours, read-out: percent inhibition of IL-1β production
[6] = LPS-stimulated PBMCs, compound at 2.5 uM, 1 hour preincubation, 20 hours, read-out: percent inhibition of IL-6 production
[7] = LPS-stimulated PBMCs, compound at 2.5 uM, 1 hour preincubation, 20 hours, read-out: percent inhibition of IL-8 production
[8] = LPS-stimulated PBMCs, compound at 2.5 uM, 1 hour preincubation, 20 hours, read-out: percent inhibition of TNF-α production
[9] = LPS-stimulated PBMCs, compound at 25 uM, 1 hour preincubation, 20 hours, read-out: percent inhibition of IL-1β production
[10] = LPS-stimulated PBMCs, compound at 25 uM, 1 hour preincubation, 20 hours, read-out: percent inhibition of IL-6 production
[11] = LPS-stimulated PBMCs, compound at 25 uM, 1 hour preincubation, 20 hours, read-out: percent inhibition of IL-8 production
[12] = LPS-stimulated PBMCs, compound at 25 uM, 1 hour preincubation, 20 hours, read-out: percent inhibition of TNF-α production
[13] = read-out: percent inhibition of IL-1β production
[14] = read-out: percent inhibition of IL-6 production
[15] = read-out: percent inhibition of IL-8 production
[16] = read-out: percent inhibition of TNF-α production

IC50 [4] [µM] | Structure (SMILES) | inhibition at 2.5 µM [3, 5] [%] | inhibition at 2.5 µM [3, 6] [%] | inhibition at 2.5 µM [3, 7] [%] | inhibition at 2.5 µM [3, 8] [%] | inhibition at 25 µM [3, 9] [%] | inhibition at 25 µM [3, 10] [%] | inhibition at 25 µM [3, 11] [%] | inhibition at 25 µM [3, 12] [%] | further results
1 to 100 | N#Cc1c(NC2CN(C(=O)CCl)C2)c2ccccc2n(Cc2ccc(F)cc2)c1=O [Compound 1, 4-[1-(2-Chloro-acetyl)-azetidin-3-ylamino]-1-(4-fluoro-benzyl)-2-oxo-1,2-dihydro-quinoline-3-carbonitrile] | > 70 | 10 to 50 | 10 to 50 | 10 to 50 | > 70 | > 70 | 50 to 70 | > 70 | IC50 ([1]; 0 minutes, no preincubation with MIF): 24 µM; IC50 ([1]; 20 minutes preincubation with MIF): 6 µM; IC50 ([1]; 60 minutes preincubation with MIF): 3 µM; inhibition at 2.5 µM ([2]; read-out: percent inhibition of IL-17F production): > 70%; inhibition at 2.5 µM ([2]; read-out: percent inhibition of IL-22 production): > 70%
– | CC(=O)N=C1C=CC(=O)C=C1 [NAPQI, N-acetyl-p-benzoquinone imine, reference compound] | – | – | – | – | – | – | – | – | inhibition at 2.5 µM [3, 13]: 10 to 50%; inhibition at 25 µM [3, 13]: > 70%; inhibition at 2.5 µM [3, 14]: < 10%; inhibition at 25 µM [3, 14]: < 10%; inhibition at 2.5 µM [3, 15]: < 10%; inhibition at 25 µM [3, 15]: < 10%; inhibition at 2.5 µM [3, 16]: < 10%; inhibition at 25 µM [3, 16]: > 70%
– | CC(C)C(=O)c1c(C(C)C)nn2ccccc12 [Ibudilast, reference compound] | 50 to 70 | < 10 | < 10 | > 70 | > 70 | < 10 | < 10 | > 70 | –
≤ 1 | Cn1c(=O)c(C#N)c(NC2CCN(C(=O)c3cccs3)CC2)c2ccccc21 [Compound 5] | 50 to 70 | 10 to 50 | < 10 | 10 to 50 | > 70 | < 10 | < 10 | 50 to 70 | –
> 100 | C=CC(=O)N1CCC(Nc2c(C#N)c(=O)n(C)c3ccccc23)CC1 [Compound 4, 4-(1-Acryloyl-piperidin-4-ylamino)-1-methyl-2-oxo-1,2-dihydro-quinoline-3-carbonitrile] | 10 to 50 | 10 to 50 | < 10 | < 10 | 50 to 70 | < 10 | < 10 | 10 to 50 | –
≤ 1 | N#Cc1c(NC2CN(C(=O)c3ccncc3)C2)c2ccccc2n(Cc2ccc(F)cc2)c1=O [Compound 7] | 50 to 70 | 10 to 50 | < 10 | 10 to 50 | > 70 | < 10 | < 10 | > 70 | –

Source: patent US9133164B2, “MIF inhibitors and their uses” (INNOV88 LLC, priority 2011, dated 2015)
